The text below walks through data of patent US4448730A, “Hydroxybenzohydroxamic acids, benzamides and esters and related compounds as ribonucleotide reductase inhibitors” (priority 1982, dated 1984).

Data set [1] has as its system L1210 leukemia. The data set can be described thus: L1210 leukemia in mice, increase in life span (Table 2). It counts as in vivo. The note with it: Mus musculus, L1210, 192 h, read-out: ILS, average percent (± standard error) increase in life span; for ILS at 500 mg/kg: 500 mg/kg daily for 8 days; for ILS at 200 mg/kg: 200 mg/kg daily for 8 days. An excerpt: As stated above, the compounds represented by formula I above have the ability to inhibit ribonucleotide reductase, an enzyme involved in the reductive conversion of ribonucleotides to deoxyribonucleotides. This enzymatic reaction is a rate controlling step in the biosynthetic pathway leading to DNA and cell replication. In general, the ribonucleotide reductase level is closely correlated with cellular replication.
(§1) Table 2 gives ribonucleotide reductase data for certain compounds of formula I. In the table, column 1 gives the substitution pattern in the benzene ring, column 2, the R^1 group, column 3, the ID50 (inhibitory dose in micromolar concentration which inhibits ribonucleotide reductase by 50%), column 4, the average percent (± standard error) increase in the life span (ILS) of 8 treated mice inoculated with L1210 leukemia compared with 8 control mice also inoculated with L1210. The daily dose level of the drug which was administered for 8 days is indicated in column 5. Table 3 gives the relative potency of the compounds represented by formula I above as inhibitors of ribonucleotide reductase compared to hydroxyurea whose potency was given an arbitrary value of 1.0. In table 3, column 1 gives the name of the compound and column 2 the relative inhibitory potency of each of the compounds of column 1.

In data set [2] the target is T1, ribonucleotide reductase (Rattus norvegicus, UniProt Q4KLN6).
T1 construct: partially purified from Novikoff hepatoma; from tissue; host or cells: Novikoff hepatoma (rat tumour), partially purified enzyme
T1 sequence (Q4KLN6 1-390): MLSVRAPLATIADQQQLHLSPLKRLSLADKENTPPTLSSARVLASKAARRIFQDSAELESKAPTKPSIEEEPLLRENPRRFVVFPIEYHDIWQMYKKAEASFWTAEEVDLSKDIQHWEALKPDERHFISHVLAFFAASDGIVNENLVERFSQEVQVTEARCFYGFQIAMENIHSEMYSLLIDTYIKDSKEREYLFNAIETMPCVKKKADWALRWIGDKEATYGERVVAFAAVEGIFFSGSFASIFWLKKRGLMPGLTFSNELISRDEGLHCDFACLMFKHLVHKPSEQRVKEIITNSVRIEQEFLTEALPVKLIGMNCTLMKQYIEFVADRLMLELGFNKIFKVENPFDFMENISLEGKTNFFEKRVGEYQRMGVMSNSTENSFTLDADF
The data set can be described thus: Inhibition of ribonucleotide reductase (conversion of CDP to dCDP), enzyme partially purified from Novikoff hepatoma. It counts as biochemical. The note with it: for IC50: CDP to dCDP, 40 min at 30° C, pH 7.5, enzyme from Novikoff hepatoma, read-out: ID50 (inhibitory dose which inhibits ribonucleotide reductase by 50%); for Inhibitory Potency for ribonucleotide reductase: relative to hydroxyurea, given an arbitrary value of 1.0.
Text: as §1
In the above determination of ID50 's in Table 3, ribonucleotide reductase is partially purified from Novikoff hepatoma by a procedure similar to that set forth by Elford et al. J. Biol. Chem. 245, 5228 (1970). The activity of the enzyme was measured by a slightly modified assay procedure originally developed by Reichard et al. id, 236, 1150 […]. This procedure measures the conversion of CDP to dCDP. The assay mixture (0.34 ml.) contains 3 μCi of [^3 H] CDP (specific activity […]), 3.3 μmole ATP, 5.9 μmoles magnesium chloride, 8.8 μmoles Hepes buffer at pH=7.5, 15 μmoles dithiothreitol and enzyme protein between 0.4 and 1.3 mg. Incubation was provided for forty minutes at 30° C. Ion exchange chromatography employing Dowex 50 (H^+) resin is used to separate the product from the substrate. The inhibitors were dissolved in water and a mixture of water and up to 1 % ethanol or 2% dimethylsulfoxide, neither one of which inhibited the enzyme at these concentrations. Each inhibitor was tested at a minimum of three concentrations and the active compounds reassayed at least one additional time. ID50 's in μmoles were estimated from graphs summarizing results for each compound.

Data set [3] concerns DNA synthesis in Ehrlich ascites tumor cells. As to conditions: cited from earlier work; for inhibition of / selectivity against DNA synthesis (in words) / selectivity against DNA synthesis (in words): Gale and Hynes 1968; for inhibition of / selectivity against DNA synthesis (in words): in vitro; for selectivity against DNA synthesis (in words): only after exposure of the cells for 1-2 hours.

In data set [4] the test system is L-1210 Leukemia. The data set can be described thus: Direct side-by-side comparison with L-1210 leukemia. It is filed as in vivo, mice. An excerpt:
In a direct side-by-side comparison with L-1210 leukemia, the following results were obtained.

The test system of data set [5] is L-1210 Leukemia. It counts as in vivo, mice. An excerpt:
The above data clearly show the enhanced anti-tumor activity of trihydroxybenzohydroxamic acid where the hydroxy groups are vicinal but no hydroxyl is ortho. Similar data are available for the vicinal dihydroxybenzohydroxamic acids with and without an ortho-hydroxy substituent in an L-1210 leukemic test in mice as follows: […]

The conditions of data set [6]: Biochemical Pharmacology 1971; cited from earlier work.
Data set [7] relates to Lewis Lung. Put plainly: Activity vs. Lewis Lung (Table 5). It is filed as in vivo, mice. As to conditions: once or twice daily for 9-10 days.
Procedure: (§2) All compounds were administered once or twice daily for 9-10 days starting 24 hours after inoculation with the tumor.
The subject of data set [8] is P388 Leukemia. The data set can be described thus: Activity vs. P388 Leukemia (Table 8). It counts as in vivo, mice. As to conditions: once or twice daily for 9-10 days.
Procedure: as §2
The test system of data set [9] is L-1210 Leukemia. It is filed as in vivo, mice. As to conditions: once or twice daily for 9-10 days.
Procedure: as §2
In data set [10] the test system is CA-755 adenocarcinoma. The data set can be described thus: Activity vs. CA-755 adenocarcinoma (Table 7). It is filed as in vivo, mice. As to conditions: once or twice daily for 9-10 days.
Procedure: as §2
The test system of data set [11] is L-5563 lymphoma. Put plainly: Activity vs. L-5563 lymphoma (Table 6). The note with it: once or twice daily for 9-10 days.
Procedure: as §2
For data set [12], the system named is L-1210 Leukemia. It counts as in vivo, mice. As for the experimental part: In a series of studies against L-1210 leukemia, in addition to those studies set forth in Table 2 and 4, 3,4-dihydroxybenzohydroxamic acid gave the following increases in survival times at the dose levels specified. Drug was administered daily for nine days.
Similar data for 3,4,5-trihydroxybenzohydroxamic acid are as follows: […]
The source holds these as a separate data set.

Where two headings read alike, the source gives them in different places.

A word on the ILS: it is how much longer treated animals lived than controls. Turning to `CNC(=O)c1cc(O)c(O)c(O)c1` [3,4,5 NHCH3], the ILS at 500 mg/kg in data set [1] is 60 ± 29%. Further, the IC50 in [2] amounted to 25 µM.
In the case of `O=C(NO)c1cccc(O)c1O` [2,3-dihydroxybenzohydroxamic acid], the “inhibition of / selectivity against DNA synthesis (in words)” value in [3] is “marked selectivity against DNA synthesis with a greater inhibition than that produced by salicylhydroxamic acid”. For the same compound, the “% increase in survival time” value is reported as 0% in [4] (125 mg/kg), 16% in [4] (250 mg/kg), “about 0%” in data set [5] (300 mg/kg) and “about 0%” in data set [5] (450 mg/kg). Further, the ILS at 200 mg/kg in data set [1] is 36 ± 11%. In addition, the IC50 in [2] was 8 µM. In addition, the “Inhibitory Potency for ribonucleotide reductase” value in data set [2] is on record as 63. In addition, the “antimitogenic activity (in words)” value in data set [6] is “most active compounds tested”.
Turning to `NC(=O)c1ccc(O)c(O)c1O` [2,3,4-trihydroxybenzamide], the ILS at 200 mg/kg in data set [1] came to 48 ± 7%. Also, in data set [2], the IC50 was found to be 5 µM and the “Inhibitory Potency for ribonucleotide reductase” value stood at 100.
For orientation: % inhibition means the relative decrease from the control value, in per cent. The low end stands for little suppression, the high end for strong suppression. `NC(=O)c1cc(O)c(O)c(O)c1` [3,4,5-trihydroxybenzamide]: the “% tumor inhibition” value in data set [7] (200 mg/kg) came out at 21%. In addition, the “% Prolongation” value in data set [8] (175 mg/kg) turned out to be 43%; in data set [8] (200 mg/kg), 40%; in data set [8] (225 mg/kg), 55%. In data set [1] (250 mg/kg daily for 8 days), the ILS at 250 mg/kg is 42 ± 5%. Further, the “% increase in survival time” value came out at 50% in data set [9] (150 mg/kg), 55% in data set [9] (175 mg/kg) and 10% in data set [9] (225 mg/kg). Besides, in data set [10] (200 mg/kg), the “% inhibition” value amounted to 38%. For the same compound, the “toxic (in column % inhibition)” value in [11] (200 mg/kg) is recorded as “toxic”. Moreover, the IC50 in [2] was found to be 10 µM. Further, in data set [2], the “Inhibitory Potency for ribonucleotide reductase” value came to 50.
As for `O=C(Oc1ccccc1)c1cc(O)c(O)c(O)c1` [phenyl 3,4,5-trihydroxybenzoate], the “% tumor inhibition” value was 2% in data set [7] (50 mg/kg) and 14% in data set [7] (200 mg/kg). Besides, the “% increase in survival time” value in [9] (200 mg/kg) came out at 56%. For the same compound, the “% inhibition” value is reported as 27% in data set [10] (100 mg/kg), 11% in data set [10] (200 mg/kg) and 19% in [11] (200 mg/kg). Moreover, the “Inhibitory Potency for ribonucleotide reductase” value in data set [2] was 33.
As to `O=C(NO)c1ccc(O)cc1O` [2,4-dihydroxybenzohydroxamic acid], in data set [1], the increase in lifespan (ILS) at 500 mg/kg came out at 42 ± 7%. Also, in [2], the IC50 is 250 µM and the “Inhibitory Potency for ribonucleotide reductase” value is recorded as 2.0.
In the case of `O=C(NO)c1cc(O)ccc1O` [2,5-dihydroxybenzohydroxamic acid], the increase in lifespan (ILS) at 300 mg/kg in [1] (300 mg/kg daily for 8 days) stood at 30 ± 14%. In [2], the IC50 is 200 µM and the “Inhibitory Potency for ribonucleotide reductase” value turned out to be 2.5.
`O=C(NO)c1cc(O)cc(O)c1` [3,5-dihydroxybenzohydroxamic acid]: in [1] (1000 mg/kg daily for 8 days), the ILS at 1000 mg/kg was found to be 52 ± 22%. In data set [2], the IC50 stood at 400 µM and the “Inhibitory Potency for ribonucleotide reductase” value came to 1.2.
On to `NC(=O)c1ccccc1` [benzamide], for which, in [3], the “inhibition of / selectivity against DNA synthesis (in words)” value is “totally inactive”.
In the case of `O=C(Cc1ccc(O)c(O)c1)NO` [3,4-dihydroxyphenylacetohydroxamic acid], the “% increase in survival time” value in data set [9] (606 mg/kg) came out at 57%.
Turning to `Nc1ccc(C(=O)NO)cc1` [4-aminobenzohydroxamic acid], the “selectivity against DNA synthesis (in words)” value in data set [3] is recorded as “relative selectivity against DNA synthesis”. Also, the “antimitogenic activity (in words)” value in data set [6] was “inactive”.
For `Nc1ccc(C(=O)NO)c(O)c1` [2-hydroxy-4-aminobenzoyl compound], the “antimitogenic activity (in words)” value in data set [6] was “inactive”.
For `O=C(NO)c1ccc(O)c(O)c1O` [2,3,4-trihydroxybenzohydroxamic acid], the “% tumor inhibition” value in [7] (25-50 mg/kg) was 13-14%. For the same compound, the ILS at 125 mg/kg in data set [1] (125 mg/kg daily for 8 days) was found to be 30 ± 7%. In addition, the “% increase in survival time” value in data set [9] (25-50 mg/kg) is given as 17-21%. Also, the “% inhibition” value in [10] (25-50 mg/kg) is on record as 12-18%. The figures for the “% increase in survival” value in [12] (25 mg/kg daily for nine days), in data set [12] (50 mg/kg daily for nine days) and in data set [12] (100 mg/kg daily for nine days) were 10%, 8% and 16%, respectively. For the same compound, the “toxic (in column % inhibition)” value in data set [11] (25-50 mg/kg) is given as “toxic”. For the same compound, the IC50 in data set [2] came out at 3.5 µM. Besides, in [2], the “Inhibitory Potency for ribonucleotide reductase” value amounted to 140.
On to `CC(C)c1cc(C(=O)NO)c(O)c(C(C)C)c1` [3,5-diisopropylsalicylhydroxamic acid], for which the “inhibition of DNA synthesis, rank in words” value in data set [3] (Gale, Hynes and Smith 1970) is listed as “most active compound”.
As to `Nc1cc(N)cc(C(=O)NO)c1` [3,5-Diaminobenzohydroxamic acid], the “selectivity against DNA synthesis (in words)” value in data set [3] was “relative selectivity against DNA synthesis”.
Turning to `O=C(NO)c1c(O)cccc1O` [2,6-dihydroxybenzohydroxamic acid], the increase in life span (ILS) at 88 mg/kg in [1] (88 mg/kg daily for 8 days) came to 23 ± 11%. Further, in data set [2], the IC50 amounted to 100 µM and the “Inhibitory Potency for ribonucleotide reductase” value amounted to 5.0.
For `NC(=O)NO` [hydroxyurea, reference compound], the results for the “% tumor inhibition” value in data set [7] (71 mg/kg) and in [7] (400 mg/kg) were 27% and 44%, respectively. In addition, the “% increase in survival time” value in [9] (30 mg/kg) is 27%; in data set [9] (40 mg/kg), 27%; in [9] (60 mg/kg), 92%; in data set [9] (71 mg/kg), 58%. Further, the figures for the “% inhibition” value in data set [10] (71 mg/kg) and in data set [10] (200 mg/kg) were 27% and 26%, respectively.
With `NC(=O)c1ccc(O)c(O)c1` [3,4-dihydroxybenzamide], the ILS at 1200 mg/kg in [1] (1200 mg/kg daily for 8 days) stood at 35 ± 11%. Also, in data set [2], the IC50 worked out at 50 µM and the “Inhibitory Potency for ribonucleotide reductase” value was found to be 10.
